Data published in EP0369733A2, “Fluorescent indicator dyes for alkali metal cations, their preparation and use” (THE REGENTS OF THE UNIVERSITY OF CALIFORNIA, priority 1988, dated 1990).

How the values were obtained:
[1] = Solubility in water for spectrophotometry; format: physicochemical
physchem [2] = conditions: 0.1 m tetramethylammonium chloride
Experimental: (§4) • Footnote a: For molecular structures, see Fig. 1. • Footnote b: Except where otherwise noted, these dissociation constants were measured with the chelator dissolved in 0.1 M tetramethylammonium chloride, at a pH held high enough with 1-5 mM tris(hydroxymethyl)aminomethane for protonation to be insignificant. […] No correction has been made for the changing ionic strength of the solution, which started from 0.1 M and increased, but the absorbances and fluorescence amplitudes were applied for dilution of the dye and any slight quenching due to high concentrations of Cl⁻. • Footnote c: These protonation constants were determined in 0.1 M tetramethylammonium chloride, 10 mM tris(hydroxymethyl)aminomethane, titrated with 5 M H₃PO₄ to successively lower pH values measured with a Radiometer PHM84 meter.
(§5) Proton dissociation constants of the chelators were measured by spectrophotometry or spectrofluorometry of buffered solutions, containing either 100 mM tetramethylammonium chloride as inert supporting electrolyte, or 121.5 mM K⁺, 13.5 mM Na⁺, and 1 mM Mg²⁺ to simulate the cation environment of vertebrate cytoplasm (14). Traces of UV-absorbing impurities in the tetramethylammonium chloride (Alfa Inorganics) were removed by filtration through acid-­washed activated charcoal. The concentration of the tetramethylammonium chloride was then measured by chloride titration, and the absence of significant Na⁺ contamination was verified with a sodium-selective glass electrode (Microelectrodes Inc.). When the chelators contained two protonatable nitrogens, the curve of absorbance or fluorescence versus pH was analyzed by computerized least-squares fitting to the equations for two arbitrary proton equilibria (15), with the added assumption that the two protonations each caused the same change in extinction coefficient or fluorescence.

physchem [3] = test: physchem
Experimental: The lowest curve ([Na⁺] = 0) was obtained with 5 µM SBFI in 130 mM KCl, 10 mM MOPS, KOH to pH 7.05, approximately 135 mM total K⁺. The highest curve ([Na⁺] = 135 mM) was analogously recorded from 5 µM SBFI in 130 mM NaCl, 10 mM MOPS, NaOH to pH 7.05. The intermediate curves from 1.35 to 94.5 mM Na⁺ were obtained by successively 1/100, 1/99, 3/98, 1/19, 1/9, 1/4, and 1/2 of the K⁺-rich SBFI solution by the SBFI in Na medium. The excitation bandwidth was 1.85 nm; emission was collected at 500 nm with 9.3 nm bandwidth. […] The lowest curve was obtained in 130 mM NaCl, 10 mM MOPS, NaOH to pH 7.05. The highest curve was in 130 mM KCl, 10 mM MOPS, KOH to pH 7.05. The intermediate curves with 13.5 to 112.5 mM K⁺ were obtained by iteratively replacing 1/10, 1/9, 1/6, 1/4, 1/3, and 1/2 of the low K⁺ medium by the 135 mM KCl solution of PBFP.
Proton dissociation constants of the chelators were measured by spectrophotometry or spectrofluorometry of buffered solutions, containing either 100 mM tetramethylammonium chloride as inert supporting electrolyte, or 121.5 mM K⁺, 13.5 mM Na⁺, and 1 mM Mg²⁺ to simulate the cation environment of vertebrate cytoplasm (14). […] When the chelators contained two protonatable nitrogens, the curve of absorbance or fluorescence versus pH was analyzed by computerized least-squares fitting to the equations for two arbitrary proton equilibria (15), with the added assumption that the two protonations each caused the same change in extinction coefficient or fluorescence. This assumption was based on the presence of two identical chromophores in each chelator and produced good fits to the experimental data.

[4] = Proton dissociation constants in 0.1 M tetramethylammonium chloride; conditions: second value (second protonation), 10 mM Tris titrated with 5 M H₃PO₄
Experimental: as §4, §5

[5] = UV absorbance spectra without and with saturating cation; format: physicochemical; conditions: for Absorbance maxima -Na⁺ (wavelength): 100 mM tetramethylammonium chloride plus 1-5 mM Tris; for Absorbance maxima -Na⁺ (wavelength) / Absorbance maxima -Na⁺ (extinction coefficient): no Na⁺; for Absorbance maxima +Na⁺ (wavelength): enough NaCl added (0.2-1 M) to saturate the Na⁺ binding; for Absorbance maxima -Na⁺ (extinction coefficient) / Absorbance maxima +Na⁺ (extinction coefficient) / Absorbance maxima +Na⁺, footnote l (extinction coefficient): number is 10⁻³ x the extinction coefficient; for Absorbance maxima -Na⁺ (extinction coefficient): lower limits for most compounds; for Absorbance maxima +Na⁺ (extinction coefficient): lower limits, saturating NaCl (0.2-1 M); for Absorbance maxima +Na⁺, footnote l (extinction coefficient) / Absorbance maxima +Na⁺, footnote l (wavelength): saturating K⁺ rather than Na⁺
Experimental: (§1) • Footnote a: For molecular structures, see Fig. 1. • Footnote b: Except where otherwise noted, these dissociation constants were measured with the chelator dissolved in 0.1 M tetramethylammonium chloride, at a pH held high enough with 1-5 mM tris(hydroxymethyl)aminomethane for protonation to be insignificant. The absorbance spectrum, or the fluorescence excitation spectrum for those compounds (2GG, 2NN, 2OO, 2PP, 3NN) with acronyms was measured as a function of the concentration of cation added as a solid or concentrated aqueous solution of the halide salt. No correction has been made for the changing ionic strength of the solution, which started from 0.1 M and increased, but the absorbances and fluorescence amplitudes were applied for dilution of the dye and any slight quenching due to high concentrations of Cl⁻. • Footnote c: These protonation constants were determined in 0.1 M tetramethylammonium chloride, 10 mM tris(hydroxymethyl)aminomethane, titrated with 5 M H₃PO₄ to successively lower pH values measured with a Radiometer PHM84 meter. […] The first number is the wavelength in nanometers, followed in parentheses by 10⁻³ x the corresponding extinction coefficient, M⁻¹cm⁻¹. […] Emission maxima are not corrected for the spectral sensitivity of the emission detection. Quantum efficiencies were measured (13) by comparing the integral of the corrected emission spectrum with the corresponding integral for a solution of quinine bisulfate in 1 N H₂SO₄ of matched absorbance at the excitation wavelength.
(§2) UV absorbance spectra were recorded initially on a Cary 210 and later on a Perkin-Elmer Lambda Array 3840 spectrophotometer. Fluorescence excitation and emission spectra and quantum efficiencies were measured on a Spex Fluorolog 111 as described previously (13).

[6] = Fluorescence excitation/emission spectra and quantum efficiency; format: physicochemical; conditions: for Emission maxima -Na⁺: 100 mM tetramethylammonium chloride; for Emission maxima -Na⁺ / Quantum efficiency -Na⁺: no Na⁺; for Emission maxima -Na⁺ / Emission maxima +Na⁺: not corrected for detector sensitivity; for Quantum efficiency -Na⁺ / Quantum efficiency +Na⁺: relative to quinine bisulfate in 1 N H₂SO₄ (0.55); for Emission maxima +Na⁺: saturating NaCl; for Quantum efficiency +Na⁺: saturating Na⁺; for Emission maxima +Na⁺, footnote l / Quantum efficiency +Na⁺, footnote l: saturating K⁺ rather than Na⁺
Experimental: as §1, §2

[7] = Cation titration followed by absorbance or fluorescence excitation spectra: Na⁺ binding
Experimental: as §1
(§3) Affinities for other cations were usually measured by titrating aqueous solutions of the indicator with metal chlorides added either as solid or from concentrated stock solutions, taking care to minimize dilution and correct for it. A convenient way to mass-produce premeasured micromole to millimole aliquots of solid NaCl or KCl was to pipet saline solutions into polypropylene micro test tubes and evaporate the water in an oven. The standard ionic background was again 100 mM tetramethylammonium chloride, usually with a few mM of tris(hydroxymethyl)-aminomethane base to hold the pH high enough (pH 8-9) to insure that protonation was negligible. This convenient titration procedure had the slight disadvantage that the ionic strength was not constant, especially when large quantities of a salt had to be added due to weak affinities. […] When constant ionic strength was desired, the chelator was made up at identical concentrations in matched solutions of NaCl, KCl, or tetramethylammonium chloride, then these stocks were mixed in the desired proportions. All measurements were made at room temperature (22°, ±2° C).

[8] = Cation titration followed by absorbance or fluorescence excitation spectra: Mg²⁺ binding; conditions: 0.1 M tetramethylammonium chloride, 1-5 mM tris(hydroxymethyl)aminomethane, high pH; read-out: Dissociation constants (Kd) in mM for Mg²⁺
Experimental: as §1
as §3, with “proportions.” for “proportions. All measurements were made at room temperature (22°, ±2° C).”

[9] = quinine bisulfate in 1 N H₂SO₄; assumed value; cited from earlier work
[10] = Cation titration followed by absorbance or fluorescence excitation spectra: K⁺ binding; conditions: 0.1 M tetramethylammonium chloride, 1-5 mM tris(hydroxymethyl)aminomethane, high pH; read-out: Dissociation constants (Kd) in mM for K⁺
Experimental: as §1
Affinities for other cations were usually measured by titrating aqueous solutions of the indicator with metal chlorides added either as solid or from concentrated stock solutions, taking care to minimize dilution and correct for it. […] This convenient titration procedure had the slight disadvantage that the ionic strength was not constant, especially when large quantities of a salt had to be added due to weak affinities. […]

[11] = Cation titration followed by absorbance or fluorescence excitation spectra: Ca²⁺ binding; conditions: 0.1 M tetramethylammonium chloride, 1-5 mM tris(hydroxymethyl)aminomethane, high pH; read-out: Dissociation constants (Kd) in mM for Ca²⁺
Experimental: as §1, §3

[12] = 0.1 M tetramethylammonium chloride, 1-5 mM tris(hydroxymethyl)aminomethane, pH high enough for protonation to be insignificant, 22°, read-out: Dissociation constants (Kd) in mM for Na⁺

Molecule | pKa (physchem [2]) | pKa (physchem [3]; 126 mm kcl, 14 mm nacl) | pKa [4] | Absorbance maxima -Na⁺ (wavelength) [5] | Absorbance maxima +Na⁺ (wavelength) [5] | Absorbance maxima -Na⁺ (extinction coefficient) [5] | Absorbance maxima +Na⁺ (extinction coefficient) [5] | Emission maxima -Na⁺ [6] | Emission maxima +Na⁺ [6] | Kd [7, 12] | Kd [8] | Kd [10] | Absorbance maxima +Na⁺, footnote l (extinction coefficient) [5] | Absorbance maxima +Na⁺, footnote l (wavelength) [5] | Quantum efficiency -Na⁺ [6] | Emission maxima +Na⁺, footnote l [6] | Quantum efficiency +Na⁺, footnote l [6] | Kd [11] | other results
N,N-bis-(1-acetamidoacridin-4-yl)-diaza[15]-crown-5 [Compound 2HH] | – | – | – | – | – | – | – | – | – | – | – | – | – | – | – | – | – | – | solubility in water [1]: insufficiently soluble in water for spectrophotometry
COc1cc2cc(-c3ncc(C(=O)O)o3)oc2cc1N1CCOCCOCCN(c2cc3oc(-c4ncc(C(=O)O)o4)cc3cc2OC)CCOCC1 [Compound 2OO, N,N-bis-(2-(5-carboxyoxazol-2-yl)-5-methoxybenzofuran-6-yl)-diaza[15]-crown-5] | 5.34 | 4.82 | 4.15 | 355 nanometers | 343 nanometers | 25000 M⁻¹ cm⁻¹ | 27000 M⁻¹ cm⁻¹ | 515 nanometers | 500 nanometers | 50 mM | 63 mM | – | – | – | – | – | – | – | Quantum efficiency -Na⁺ ([6]; listed as 2OO (SBFO)): .14; Quantum efficiency -Na⁺ ([6]; listed as SBFO): 0.14; Quantum efficiency +Na⁺ ([6]; listed as 2OO (SBFO)): .44; Quantum efficiency +Na⁺ ([6]; listed as SBFO): 0.44; Na⁺ affinity ([7]; association constant, inert background cation (tetramethylammonium)): 20 M⁻¹; Kd ([7]; footnote h: 3.0 M ionic strength (3.0 M NaCl mixed with 3.0 M tetramethylammonium chloride), read-out: Dissociation constants (Kd) in mM for Na⁺): 22 mM
C=C[C@H]1C[N@@]2CC[C@H]1C[C@H]2[C@H](O)c1ccnc2ccc(OC)cc12 [Quinine, quinine bisulfate] | – | – | – | – | – | – | – | – | – | – | – | – | – | – | – | – | – | – | quantum efficiency of reference standard [9]: 0.55
COc1cc2cc(-c3ccc(C(=O)O)c(C(=O)O)c3)oc2cc1N1CCOCCOCCN(c2cc3oc(-c4ccc(C(=O)O)c(C(=O)O)c4)cc3cc2OC)CCOCCOCC1 [Compound 3NN, N,N-bis(2-(3,4-dicarboxyphenyl)-5-methoxybenzofuran-6-yl)-diaza[18]-crown-5] | – | 6.68 | – | 344 nanometers | – | 23000 M⁻¹ cm⁻¹ | – | 518 nanometers | – | – | – | 83 mM | 25000 M⁻¹ cm⁻¹ | 337 nanometers | .0075 | 494^l nanometers | .12^l | – | –
COc1cc2cc(-c3ccc(C(=O)O)cc3C(=O)O)oc2cc1N1CCOCCOCCN(c2cc3oc(-c4ccc(C(=O)O)cc4C(=O)O)cc3cc2OC)CCOCCOCC1 [Compound 3PP] | – | – | – | 350 nanometers | – | 42000 M⁻¹ cm⁻¹ | – | 545 nanometers | – | 21 mM | 40 mM | 8 mM | 42000 M⁻¹ cm⁻¹ | 344 nanometers | .024 | 504^l nanometers | .072^l | 16 mM | pKa (physchem [3]): 5.78
COc1cc2cc(-c3ccc(C(=O)O)c(C(=O)O)c3)oc2cc1N1CCOCCOCCN(c2cc3oc(-c4ccc(C(=O)O)c(C(=O)O)c4)cc3cc2OC)CCOCC1 [Compound 2NN, N,N-bis-(2-(3,4-dicarboxyphenyl)-5-methoxybenzofuran-6-yl)-diaza[15]-crown-5] | 6.3 | 6.4 | 5.5 | 342 nanometers | 334 nanometers | 45500 M⁻¹ cm⁻¹ | 51600 M⁻¹ cm⁻¹ | 528 nanometers | 505 nanometers | 8.5 mM | 18 mM | – | – | – | .036 | – | – | 40 mM | Quantum efficiency +Na⁺ [6]: .091; Kd ([7]; summary statement, conditions not specified, read-out: dissociation constant (Na⁺), range achieved): 5 to 20 mM
